Consider two substances from paper PMC7371863, “Intracellular interplay between cholecystokinin and leptin signalling for satiety control in rats” (Scientific Reports, 2020).

The test system of one assay is wild-type C6 cells. The assay can be described thus: Ca2+ imaging (Fura-2), leptin and CCK-8s signalling interaction in wild-type C6 cells. In kind it is cell-based, rat. The settings on record: leptin 100 nM. The method, then: (§1) Rat C6 glioma cells were cultured in Dulbecco’s Modified Eagle Medium/F12 (DMEM/F12) supplemented with 10% FBS, sodium bicarbonate (1.2 g/L), and 1% penicillin/streptomycin antibiotics at 37 °C in 5% CO2. The full-length mouse leptin receptor (ObRb) in pcDNA3.1 vector was kindly provided by Dr. Christian Bjørbaek (BIDMC, Harvard Medical School, Boston, MA, USA) and transfected using Lipofectamine 2000. Subsequently, the cells were cultured in medium containing 500 μg/mL G418 for cell selection.
C6 cells plated on 35 mm plastic dishes were gently rinsed with buffered salt solution (BSS) consisting of 130 mM NaCl, 5.4 mM KCl, 2 mM CaCl2, 1 mM MgCl2, 5.5 mM D-glucose, and 10 mM HEPES/NaOH (pH 7.4), and incubated in BSS supplemented with 6 µM Fura-2 AM (Dojindo Laboratories, Kumamoto, Japan) for 30 min in a CO2 incubator. Prior to photometry, the cells were rinsed again with BSS, incubated at 37°C for 15 min, and then continuously perfused with BSS at 34°C at a flow rate of 3 mL/min. Fluorescence images were obtained using an upright microscope (Axioplan2; Carl Zeiss, Thornwood, NY, USA) with a water-immersion objective (Achroplan×20 NA0.5w; Carl Zeiss). The wavelength of the excitation UV light (340 nm or 380 nm pulse; 250 msec) was switched using a filter wheel (Lambda 10-2; Sutter Instruments, Novato, CA, USA). The UV light was generated by a full spectrum 300W Xenon bulb (Lambda LS; Sutter Instruments), conducted to the microscope through a liquid light guide. The pair of fluorescent images was processed using a band-pass filter (485–515 nm) and exposed to a multiple format cooled CCD camera (CoolSnap-fx; Photometrics, Tucson, AZ, USA) at 6-sec intervals. The filter wheel and the CCD camera were controlled using digital imaging software (MetaFluor ver. 6.2; Japan Molecular Devices, Tokyo, Japan). The background fluorescence was also subtracted using the software.
During image acquisition, leptin (PeproTech, Rocky Hill, NJ, USA), CCK-4 (Peptide Institute, Inc., Osaka, Japan), CCK-8s (Sigma-Aldrich, St. Louis, MO, USA), AG490 (Calbiochem, San Diego, CA), LY294002 (Calbiochem), LY225910 (R&D Systems, Minneapolis, MN, USA), LGM (LKT Laboratories Inc., St. Paul, MN, USA), and ATP (Sigma-Aldrich) were applied by switching the perfusate. The magnitude of Ca^2+ responses was determined by peak area analysis using Origin 5.0 software (OriginLab, Northampton, MA, USA).

Assay [1] relates to C6-ObRb cells (mouse leptin receptor ObRb). The assay can be described thus: Ca2+ imaging (Fura-2) in C6 cells overexpressing mouse ObRb (C6-ObRb). Type of assay: cell-based, rat C6 cells. The method, then:
as §1
(§2) C6 cells plated on 35 mm plastic dishes were gently rinsed with buffered salt solution (BSS) consisting of 130 mM NaCl, 5.4 mM KCl, 2 mM CaCl2, 1 mM MgCl2, 5.5 mM D-glucose, and 10 mM HEPES/NaOH (pH 7.4), and incubated in BSS supplemented with 6 µM Fura-2 AM (Dojindo Laboratories, Kumamoto, Japan) for 30 min in a CO2 incubator. Prior to photometry, the cells were rinsed again with BSS, incubated at 37°C for 15 min, and then continuously perfused with BSS at 34°C at a flow rate of 3 mL/min. Fluorescence images were obtained using an upright microscope (Axioplan2; Carl Zeiss, Thornwood, NY, USA) with a water-immersion objective (Achroplan×20 NA0.5w; Carl Zeiss). The wavelength of the excitation UV light (340 nm or 380 nm pulse; 250 msec) was switched using a filter wheel (Lambda 10-2; Sutter Instruments, Novato, CA, USA). […] The background fluorescence was also subtracted using the software. […]

In a further assay the test system is ARC cells. Type of assay: cell-based, rat. The settings on record: leptin 500 nM; 12 slices; 0.5 µM tetrodotoxin; 34 °C; mean with standard error.
The test system of assay [2] is nucleus tractus solitarius. The settings on record: fourth ventricular injection of leptin; cited from earlier work. The source says:
(§3) Also, the effect of CCK on satiety control is attenuated in Zucker fa/fa rats lacking functional leptin receptors. In addition, other evidence implicated that leptin-mediated satiety-controlling systems may strongly interact with CCK systems[18],[50]–[54]. For example, c-Fos expression in oxytocin neurons in the hypothalamic paraventricular nucleus is elevated by leptin administration, and these neurons have axons tha ...

The subject of assay [3] is oxytocin neurons in the hypothalamic paraventricular nucleus. The settings on record: leptin administration; cited from earlier work.
From the text: as §3

The test system of assay [4] is cerebellar granule cell cultures. The settings on record: via MAPK pathways; cited from earlier work. The source says: (§4) A product of the obese gene, leptin, is a peptide hormone secreted from white adipocyte tissue, also known as a satiety-controller[31]–[33]. […] Splice variants (ObRa–ObRe) have been identified for leptin receptors and only the full-length isoform (ObRb) contains the intracellular motifs required for the initiation of intracellular signalling. ObRb is a single-transmembrane receptor that interacts with diverse signalling molecules[ ...

Another assay concerns dissociated ARC neurons. The settings on record: cited from earlier work.
From the text: as §4

The test system of assay [5] is hypothalamic astrocyte cultures. The settings on record: cited from earlier work.
From the text: as §4

The test system of assay [6] is primary cultures of ventromedial hypothalamus (VMN and ARC neurons). The settings on record: depending on cell populations; cited from earlier work.
From the text: as §4

Assay [7] deals with porcine adrenal medullary chromaffin cells. The settings on record: cited from earlier work.
In assay [8] the test system is meal frequency / meal size. The settings on record: leptin; cited from earlier work. The source says: Although CCK and leptin have been commonly described as satiety controlling peptides, their differential roles have also been highlighted. […] Among the wide variety of intracellular signalling machineries linked to ObRb, it is still uncertain which pathway(s) is/are linked to what type of satiety controls. pSTAT3-ir is used as a genera ...

The test system of assay [9] is CCK-1 and CCK-2 receptors (C6 cells). The assay is described as follows: Ca2+ imaging (Fura-2), CCK-8s response in C6 cells. The settings on record: CCK-8s 10 nM; n = 103/five dishes; Fura-2, 34°C, BSS pH 7.4. In kind it is cell-based, rat. The method, then: as §1, §2
For assay [10], the system named is primary cultures of rat nodose ganglion neurons. The settings on record: CCK-8s treatment, co-stimulation with leptin; cited from earlier work. The source says: An important observation in C6 models, other than intracellular Ca^2+ signalling, is the reduction in leptin-induced nuclear pSTAT3 accumulation by co-stimulation with CCK-8s. The level of pSTAT3 following co-stimulation with CCK-8s and leptin has been analyzed in primary cultures of rat nodose ganglion neurons[53],[54].

Regarding “leptin: peptide hormone secreted from white adipocyte tissue, product of the obese gene; PeproTech Cat#450-31”, the “Ca2+ transients by leptin treatment alone, wild-type C6 cells” value in the assay with wild-type C6 cells (5 min or 500 nM, 5 min, n = 185/eight dishes) is on record as “failed to evoke Ca^2+ transients”. Besides, the “amplification in the magnitude of CCK-8s-induced Ca2+ mobilization” value in the assay with wild-type C6 cells (5 min pre-treatment, CCK-8s 10 nM, n = 115/five dishes) is on record as ~ 5 times. The “magnitude of Ca2+ response by co-stimulation, C6-ObRb versus wild-type” value in [1] (leptin 100 nM and CCK-8s 10 nM, n = 84/four dishes, Student's t-test) is listed as “not significantly different from that in wild-type C6 cells”. In addition, the “Ca2+ transients by leptin treatment alone, C6-ObRb” value in assay [1] (leptin 100 nM, 5 min or 500 nM, 5 min, n = 190/11 dishes) was “failed to evoke Ca^2+ transients”. Moreover, in the assay with ARC cells, the “cells with monophasic Ca2+ increase, ARC” value was 25.9% ± 4.5. In assay [2], the CCK-induced satiety response entry was “enhanced the CCK-induced satiety response” and the “c-Fos expression in the nucleus tractus solitarius” value was “failed to increase c-Fos expression”. In assay [3], the “c-Fos expression in oxytocin neurons” value was “elevated”. In addition, the “action on N-methyl-D-aspartate-induced Ca2+ influx” value in [4] is “excitatory actions”. The “ghrelin-induced Ca2+ elevation” value in the assay on dissociated ARC neurons was “inhibited”. In assay [5], the “cytosolic Ca2+ after leptin stimulation” value is given as “monophasic cytosolic Ca^2+ elevation”. Further, the “intrinsic Ca2+ oscillations” value in [6] is “increased or decreased intrinsic Ca^2+ oscillations”. In [7], the “cytosolic Ca2+ after leptin stimulation” value was “cytosolic Ca^2+ increase”. The “meal size and meal frequency” value in [8] is “reduces meal size but does not alter meal frequency”.
CCK-8s [reference compound]: the “C6 cells displaying Ca2+ transients on re-stimulation” value in [9] is 32%. For the same substance, in assay [10], the “total pSTAT3” value is given as “significant increase in pSTAT3”.
